Assay results: ChEMBL document CHEMBL5465560, “Selectivity Literature for EUbOPEN Chemogenomic Library” (2024)

Legend:
[1] = biological target: 5-hydroxytryptamine receptor 2B (Homo sapiens, UniProt P41595); test: Selectivity interaction (GPCR panel (PDSP screen)) EUB0001079a HTR2B; details: at 10 µM
[2] = biological target: T1, Casein kinase I isoform alpha-like (Homo sapiens) (UniProt Q8N752); test: Selectivity interaction (KinomeScan (DiscoverX)) EUB0001619a CSNK1A1L; details: at 1 µM
T1 sequence (whole entry): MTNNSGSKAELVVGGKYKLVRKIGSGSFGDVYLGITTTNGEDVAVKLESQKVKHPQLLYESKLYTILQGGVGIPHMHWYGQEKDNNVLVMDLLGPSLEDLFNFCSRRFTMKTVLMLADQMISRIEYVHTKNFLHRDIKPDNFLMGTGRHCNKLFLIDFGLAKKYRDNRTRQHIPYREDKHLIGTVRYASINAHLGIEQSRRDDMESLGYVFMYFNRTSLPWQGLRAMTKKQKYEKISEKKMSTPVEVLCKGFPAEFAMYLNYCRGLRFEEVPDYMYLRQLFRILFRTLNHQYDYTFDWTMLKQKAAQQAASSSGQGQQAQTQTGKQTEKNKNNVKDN

[3] = biological target: Serine/threonine-protein kinase WNK3 (Homo sapiens) (UniProt Q9BYP7); test: Selectivity interaction (KinomeScan (DiscoverX)) EUB0001619a WNK3; details: at 1 µM
[4] = biological target: RAC-alpha serine/threonine-protein kinase (Homo sapiens, UniProt P31749); test: Selectivity interaction (ActivX KiNativ screen (ex vivo kinase selectivity in human PBMCs)) EUB0001619a AKT1; assay type: cell-based; details: PBMC, at 1 µM
[5] = biological target: Serine/threonine-protein kinase tousled-like 2 (Homo sapiens) (UniProt Q86UE8); test: Selectivity interaction (KinomeScan (DiscoverX)) EUB0000045b TLK2
[6] = test system: Epidermal growth factor receptor (Homo sapiens), P00533 [UNDEFINED MUTATION]; test: Selectivity interaction (KinomeScan (DiscoverX)) EUB0000045b EGFR; details: at 10 µM
[7] = biological target: STE20-like serine/threonine-protein kinase (Homo sapiens, UniProt Q9H2G2); test: Selectivity interaction (ActivX KiNativ screen (kinase selectivity in THP-1 cell lysates)) EUB0000639a SLK; assay type: subcellular; details: lysate, at 1 µM
[8] = biological target: Mitogen-activated protein kinase 10 (Homo sapiens, UniProt P53779); test: Selectivity interaction (ActivX KiNativ screen (kinase selectivity in THP-1 cell lysates)) EUB0000639a MAPK10; assay type: subcellular; details: lysate
[9] = biological target: Receptor-type tyrosine-protein kinase FLT3 (Homo sapiens) (UniProt P36888); test: Selectivity interaction (KinomeScan (DiscoverX)) EUB0000229b FLT3; details: at 10 µM
[10] = biological target: T2, Ephrin type-B receptor 3 (Homo sapiens) (UniProt P54753); test: Selectivity interaction (KinomeScan (DiscoverX)) EUB0001049a EPHB3; details: at 1 µM
T2 sequence (whole entry): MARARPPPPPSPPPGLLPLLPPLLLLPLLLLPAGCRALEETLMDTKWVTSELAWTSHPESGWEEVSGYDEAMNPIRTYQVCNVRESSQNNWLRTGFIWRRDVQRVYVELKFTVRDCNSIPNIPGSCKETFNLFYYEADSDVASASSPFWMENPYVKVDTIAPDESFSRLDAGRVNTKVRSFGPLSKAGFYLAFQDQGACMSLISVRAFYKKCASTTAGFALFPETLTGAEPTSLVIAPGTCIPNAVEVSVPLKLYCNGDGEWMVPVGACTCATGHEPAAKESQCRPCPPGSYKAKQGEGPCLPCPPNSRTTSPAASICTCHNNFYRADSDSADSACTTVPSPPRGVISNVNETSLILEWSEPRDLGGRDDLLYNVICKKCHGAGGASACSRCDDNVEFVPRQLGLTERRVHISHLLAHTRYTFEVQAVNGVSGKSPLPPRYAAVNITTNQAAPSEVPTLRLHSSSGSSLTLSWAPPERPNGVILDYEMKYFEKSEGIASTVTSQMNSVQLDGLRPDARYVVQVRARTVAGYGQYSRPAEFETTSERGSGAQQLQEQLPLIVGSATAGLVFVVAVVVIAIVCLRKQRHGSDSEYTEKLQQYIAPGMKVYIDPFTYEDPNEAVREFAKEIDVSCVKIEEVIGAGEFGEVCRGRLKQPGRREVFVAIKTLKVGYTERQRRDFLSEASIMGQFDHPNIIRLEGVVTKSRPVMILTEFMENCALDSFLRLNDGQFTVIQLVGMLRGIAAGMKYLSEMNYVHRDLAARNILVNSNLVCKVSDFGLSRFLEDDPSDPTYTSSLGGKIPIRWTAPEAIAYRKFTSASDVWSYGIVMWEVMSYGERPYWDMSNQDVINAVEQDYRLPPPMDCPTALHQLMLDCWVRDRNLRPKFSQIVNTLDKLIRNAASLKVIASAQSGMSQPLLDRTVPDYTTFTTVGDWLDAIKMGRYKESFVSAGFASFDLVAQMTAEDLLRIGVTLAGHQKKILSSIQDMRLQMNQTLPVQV

[11] = test system: Receptor-type tyrosine-protein kinase FLT3 (Homo sapiens), P36888 [UNDEFINED MUTATION]; test: Selectivity interaction (KinomeScan (DiscoverX)) EUB0001049a FLT3; details: at 1 µM
[12] = biological target: T3, Rhodopsin kinase GRK1 (Homo sapiens) (UniProt Q15835); test: Selectivity interaction (KinomeScan (DiscoverX)) EUB0000666a GRK1; details: at 10 µM
T3 sequence (whole entry): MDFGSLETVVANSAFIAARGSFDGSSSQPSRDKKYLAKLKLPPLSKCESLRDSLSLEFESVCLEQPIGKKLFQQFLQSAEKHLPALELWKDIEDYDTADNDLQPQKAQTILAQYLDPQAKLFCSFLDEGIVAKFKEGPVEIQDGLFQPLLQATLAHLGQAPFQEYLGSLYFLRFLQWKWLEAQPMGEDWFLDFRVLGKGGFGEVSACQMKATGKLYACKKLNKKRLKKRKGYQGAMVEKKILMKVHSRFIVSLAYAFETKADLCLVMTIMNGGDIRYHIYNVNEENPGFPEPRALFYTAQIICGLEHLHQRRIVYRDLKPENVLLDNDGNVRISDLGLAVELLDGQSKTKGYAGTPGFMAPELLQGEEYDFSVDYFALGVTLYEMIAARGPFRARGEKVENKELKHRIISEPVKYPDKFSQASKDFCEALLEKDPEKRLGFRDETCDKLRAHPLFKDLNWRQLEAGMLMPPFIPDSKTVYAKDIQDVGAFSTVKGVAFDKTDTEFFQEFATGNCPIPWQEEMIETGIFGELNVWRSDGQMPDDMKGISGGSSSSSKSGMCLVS

[13] = biological target: TGF-beta receptor type-2 (Homo sapiens) (UniProt P37173); test: Selectivity interaction (KinomeScan (DiscoverX)) EUB0000695a TGFBR2; details: at 100 nM
[14] = biological target: Serine/threonine-protein kinase RIO2 (Homo sapiens) (UniProt Q9BVS4); test: Selectivity interaction (KinomeScan (DiscoverX)) EUB0000695a RIOK2; details: at 100 nM
Sequence of Serine/threonine-protein kinase RIO2 (Homo sapiens) (Q9BVS4 whole entry, looked up): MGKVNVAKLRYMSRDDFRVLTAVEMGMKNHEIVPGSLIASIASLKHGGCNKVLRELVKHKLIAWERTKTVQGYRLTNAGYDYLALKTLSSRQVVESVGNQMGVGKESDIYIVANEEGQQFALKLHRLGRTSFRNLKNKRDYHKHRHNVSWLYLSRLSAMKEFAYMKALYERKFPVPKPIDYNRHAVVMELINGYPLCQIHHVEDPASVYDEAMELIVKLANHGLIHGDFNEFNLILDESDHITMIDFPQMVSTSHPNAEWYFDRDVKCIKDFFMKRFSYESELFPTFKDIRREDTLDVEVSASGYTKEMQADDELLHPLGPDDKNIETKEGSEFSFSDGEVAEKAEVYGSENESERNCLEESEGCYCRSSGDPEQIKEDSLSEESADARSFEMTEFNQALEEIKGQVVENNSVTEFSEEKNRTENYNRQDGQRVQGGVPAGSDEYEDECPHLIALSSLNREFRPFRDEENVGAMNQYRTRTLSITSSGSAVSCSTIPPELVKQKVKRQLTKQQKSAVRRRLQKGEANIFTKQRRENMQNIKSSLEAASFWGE

Sequence of Mitogen-activated protein kinase 10 (P53779 whole entry): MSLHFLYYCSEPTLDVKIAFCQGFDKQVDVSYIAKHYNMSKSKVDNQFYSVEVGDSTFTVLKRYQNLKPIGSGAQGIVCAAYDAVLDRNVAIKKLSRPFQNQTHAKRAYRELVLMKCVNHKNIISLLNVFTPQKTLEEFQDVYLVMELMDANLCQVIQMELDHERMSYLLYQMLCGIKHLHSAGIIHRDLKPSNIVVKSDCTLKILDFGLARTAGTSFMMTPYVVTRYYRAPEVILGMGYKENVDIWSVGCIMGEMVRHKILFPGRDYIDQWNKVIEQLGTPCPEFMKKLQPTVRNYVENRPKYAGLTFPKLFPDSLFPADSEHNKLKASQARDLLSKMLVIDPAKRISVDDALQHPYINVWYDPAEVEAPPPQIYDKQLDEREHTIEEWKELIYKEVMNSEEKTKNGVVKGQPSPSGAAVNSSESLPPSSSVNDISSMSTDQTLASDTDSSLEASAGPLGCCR
Sequence of Serine/threonine-protein kinase tousled-like 2 (Homo sapiens) (Q86UE8 whole entry, looked up): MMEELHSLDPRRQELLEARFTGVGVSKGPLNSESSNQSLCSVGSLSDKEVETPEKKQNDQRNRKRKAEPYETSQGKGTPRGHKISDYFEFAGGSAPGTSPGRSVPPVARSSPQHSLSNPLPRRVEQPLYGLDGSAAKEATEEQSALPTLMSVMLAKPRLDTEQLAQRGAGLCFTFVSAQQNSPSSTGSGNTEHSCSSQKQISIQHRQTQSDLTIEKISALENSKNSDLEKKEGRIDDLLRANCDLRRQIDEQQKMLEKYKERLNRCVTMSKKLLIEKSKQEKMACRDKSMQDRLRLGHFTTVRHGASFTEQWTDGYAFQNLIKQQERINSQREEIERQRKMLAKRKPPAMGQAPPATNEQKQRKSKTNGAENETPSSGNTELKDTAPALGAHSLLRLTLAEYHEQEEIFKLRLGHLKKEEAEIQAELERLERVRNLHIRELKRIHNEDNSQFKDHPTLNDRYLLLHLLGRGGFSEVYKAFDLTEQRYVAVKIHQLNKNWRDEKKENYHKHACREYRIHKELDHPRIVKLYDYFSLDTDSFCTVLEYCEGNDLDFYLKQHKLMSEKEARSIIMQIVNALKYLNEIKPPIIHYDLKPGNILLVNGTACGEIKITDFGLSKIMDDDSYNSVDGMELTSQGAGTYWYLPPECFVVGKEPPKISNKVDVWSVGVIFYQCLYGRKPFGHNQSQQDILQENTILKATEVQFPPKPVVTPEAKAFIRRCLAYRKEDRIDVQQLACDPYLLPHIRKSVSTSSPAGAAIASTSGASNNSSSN
Sequence of 5-hydroxytryptamine receptor 2B (P41595 whole entry, canonical isoform): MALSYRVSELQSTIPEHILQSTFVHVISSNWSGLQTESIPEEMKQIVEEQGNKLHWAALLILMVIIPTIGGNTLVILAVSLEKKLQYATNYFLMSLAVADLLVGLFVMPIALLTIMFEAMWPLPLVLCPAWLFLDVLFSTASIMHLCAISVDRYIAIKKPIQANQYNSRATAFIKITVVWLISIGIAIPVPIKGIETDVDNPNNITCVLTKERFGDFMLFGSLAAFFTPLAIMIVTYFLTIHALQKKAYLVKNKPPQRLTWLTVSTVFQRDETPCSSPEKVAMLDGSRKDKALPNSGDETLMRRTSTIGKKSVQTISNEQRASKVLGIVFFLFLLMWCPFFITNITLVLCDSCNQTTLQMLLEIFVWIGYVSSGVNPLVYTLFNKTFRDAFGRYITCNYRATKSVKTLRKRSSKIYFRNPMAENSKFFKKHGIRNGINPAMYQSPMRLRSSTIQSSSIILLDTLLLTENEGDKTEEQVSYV
Sequence of Serine/threonine-protein kinase WNK3 (Homo sapiens) (Q9BYP7 whole entry): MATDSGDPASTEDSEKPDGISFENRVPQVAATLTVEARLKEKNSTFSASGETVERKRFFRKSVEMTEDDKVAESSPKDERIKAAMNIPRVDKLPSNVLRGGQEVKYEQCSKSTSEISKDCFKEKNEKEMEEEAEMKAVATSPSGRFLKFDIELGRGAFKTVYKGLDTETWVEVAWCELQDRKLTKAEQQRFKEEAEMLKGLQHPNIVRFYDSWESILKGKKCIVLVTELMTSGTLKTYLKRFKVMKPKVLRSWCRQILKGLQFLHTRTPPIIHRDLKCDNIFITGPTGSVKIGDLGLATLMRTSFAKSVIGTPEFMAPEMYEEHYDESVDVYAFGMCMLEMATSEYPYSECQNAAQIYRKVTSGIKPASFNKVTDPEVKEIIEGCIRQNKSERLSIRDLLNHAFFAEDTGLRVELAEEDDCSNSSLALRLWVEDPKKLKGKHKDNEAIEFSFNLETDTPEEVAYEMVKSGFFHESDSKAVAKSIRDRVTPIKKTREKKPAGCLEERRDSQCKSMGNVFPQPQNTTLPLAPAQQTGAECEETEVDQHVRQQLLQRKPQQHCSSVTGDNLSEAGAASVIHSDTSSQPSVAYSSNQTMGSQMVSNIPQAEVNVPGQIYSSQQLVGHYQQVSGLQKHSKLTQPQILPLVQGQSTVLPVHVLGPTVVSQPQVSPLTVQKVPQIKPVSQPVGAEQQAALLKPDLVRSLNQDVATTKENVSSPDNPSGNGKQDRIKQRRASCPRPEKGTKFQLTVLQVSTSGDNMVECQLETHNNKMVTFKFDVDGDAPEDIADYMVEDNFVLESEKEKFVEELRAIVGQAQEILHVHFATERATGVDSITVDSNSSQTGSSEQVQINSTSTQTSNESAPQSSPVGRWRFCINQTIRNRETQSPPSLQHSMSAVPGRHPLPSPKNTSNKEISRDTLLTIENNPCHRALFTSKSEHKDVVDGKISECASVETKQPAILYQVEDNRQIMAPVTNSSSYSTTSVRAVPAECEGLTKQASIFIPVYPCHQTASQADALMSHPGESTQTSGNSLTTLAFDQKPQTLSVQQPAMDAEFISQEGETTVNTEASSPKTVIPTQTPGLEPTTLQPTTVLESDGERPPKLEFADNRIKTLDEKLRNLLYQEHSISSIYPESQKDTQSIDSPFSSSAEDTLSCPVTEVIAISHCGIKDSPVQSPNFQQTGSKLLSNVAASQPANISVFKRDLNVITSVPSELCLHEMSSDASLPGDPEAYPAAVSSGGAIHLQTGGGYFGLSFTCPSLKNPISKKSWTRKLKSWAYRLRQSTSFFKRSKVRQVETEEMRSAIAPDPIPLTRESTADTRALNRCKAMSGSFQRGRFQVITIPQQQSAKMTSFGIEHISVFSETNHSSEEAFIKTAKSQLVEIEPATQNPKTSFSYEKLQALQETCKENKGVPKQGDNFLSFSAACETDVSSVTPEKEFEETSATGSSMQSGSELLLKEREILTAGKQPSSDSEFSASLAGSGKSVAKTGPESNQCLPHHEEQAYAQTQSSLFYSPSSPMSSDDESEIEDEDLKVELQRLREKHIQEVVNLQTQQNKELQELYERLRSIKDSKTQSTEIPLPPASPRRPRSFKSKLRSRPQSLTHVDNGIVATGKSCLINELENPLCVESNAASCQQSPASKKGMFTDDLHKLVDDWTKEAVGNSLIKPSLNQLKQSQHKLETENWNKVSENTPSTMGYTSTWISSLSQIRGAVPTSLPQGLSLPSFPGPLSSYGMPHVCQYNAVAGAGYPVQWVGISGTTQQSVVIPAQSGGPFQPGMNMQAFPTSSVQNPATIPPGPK
Sequence of RAC-alpha serine/threonine-protein kinase (P31749 whole entry): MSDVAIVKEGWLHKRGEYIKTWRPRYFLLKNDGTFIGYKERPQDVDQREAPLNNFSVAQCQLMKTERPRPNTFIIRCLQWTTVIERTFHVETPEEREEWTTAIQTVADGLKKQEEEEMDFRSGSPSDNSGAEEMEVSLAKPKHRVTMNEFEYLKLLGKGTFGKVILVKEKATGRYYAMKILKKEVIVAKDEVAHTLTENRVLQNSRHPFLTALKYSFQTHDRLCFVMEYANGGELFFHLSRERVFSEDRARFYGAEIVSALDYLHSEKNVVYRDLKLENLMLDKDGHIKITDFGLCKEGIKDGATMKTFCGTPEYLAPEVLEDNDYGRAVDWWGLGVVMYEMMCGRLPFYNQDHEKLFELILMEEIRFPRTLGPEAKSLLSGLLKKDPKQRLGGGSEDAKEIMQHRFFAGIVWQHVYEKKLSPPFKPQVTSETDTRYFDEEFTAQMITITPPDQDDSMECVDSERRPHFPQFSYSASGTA

With `Nc1cnc(N2CCc3cc(S(=O)(=O)Nc4c(F)cc(Cl)cc4F)cc(N4CCCC4=O)c32)nc1` [TP-020n] the % of inhibition [1] was 12.9%.

In the case of `N#Cc1cccc(-c2c[nH]c3ncnc(N4CCOCC4)c23)c1`, the % of control [2] is reported as 96%, the % of control [3] is reported as 100% and the % of inhibition [4] is reported as -6%.

`C=CC(=O)Nc1cc(-n2c(=O)ccc3cnc4ccc(-c5ccc(NS(C)(=O)=O)cc5)cc4c32)ccc1C` gave a % of control ([5]; at 1 µM) of 100%, a % of control ([5]; at 10 µM) of 100% and a % of control [6] of 65%.

With `CC[C@@H]1[C@H](F)C(=O)N[C@@H]1COc1nccc2cc(C(N)=O)c(OC)cc12` [ZIMLOVISERTIB] the % of inhibition [7] was -14.8%, the % of inhibition ([8]; at 0.01 µM) was 13.3% and the % of inhibition ([8]; at 0.04 µM) was -1.4%. For the same compound, the % of inhibition ([8]; at 0.2 µM) was 1.6%, the % of inhibition ([8]; at 1 µM) was 27.7% and the % of inhibition ([8]; at 5 µM) was 57.5%.

For `COc1cc(N(C)c2ccnc3ccc(C(F)(F)F)cc23)cc(OC)c1OC`, the % binding [9] was 85%.

Compound `COc1cc(Nc2nc(C)cc(-c3cnn4nc(OC)ccc34)n2)cc(C(F)(F)F)c1` has a % of control [10] of 97% and a % of control [11] of 96%.

`O=C(NOC[C@H](O)CO)c1ccc(F)c(F)c1Nc1ccc(I)cc1F` was tested, and the % of control [12] was 100%.

`Cc1cc(F)c(C(=O)Nc2cccc(-c3nncn3C(C)C)n2)cc1-n1cnc(C2CC2)c1` gave a % of control [13] of 99% and a % of control [14] of 100%.
